Values of other authors in patent US11817195B2, “Methods for lowering blood sugar with a gliflozin sodium-glucose cotransport 2 inhibitor pharmaceutical composition” (AstraZeneca UK Limited, priority 2018, dated 2023).

What was measured:
[1] = at least 14 double-blind, placebo-controlled, randomized studies

In the case of Cc1ccc([C@@H]2O[C@H](CO)[C@@H](O)[C@H](O)[C@H]2O)cc1Cc1ccc(-c2ccc(F)cc2)s1 [canagliflozin, (2S,3R,4R,5S,6R)-2-[3-[[5-(4-fluorophenyl)thiophen-2-yl]methyl]-4-methylphenyl]-6-(hydroxymethyl)oxane-3,4,5-triol], the incidence of hyperkalemia (patients with moderate renal impairment, Mikhail, Curr. Drug Safety 9:127-132 (2014)) is listed as “higher incidence of hyperkalemia”.
For CCOc1ccc(Cc2cc([C@@H]3O[C@H](CO)[C@@H](O)[C@H](O)[C@H]3O)ccc2Cl)cc1 [dapagliflozin, (2S,3R,4R,5S,6R)-2-[4-chloro-3-[(4-ethoxyphenyl)methyl]phenyl]-6-(hydroxymethyl)oxane-3,4,5-triol], the “efficacy to lower blood sugar” value [1] is listed as “demonstrated” and the risk of hyperkalemia (administration of the drug) is listed as “not correlated with an increased risk of hyperkalemia”.
